Laboratory results taken from patent US20090054326A1 (NASTECH PHARMACEUTICAL COMPANY INC., priority 2005, published 2009).

What was measured:
[1] = tested on: normal, human-derived tracheal/bronchial epithelial cells (EpiAirway Tissue Model); assay: Transepithelial electrical resistance (TER) in EpiAirway tissue model; type: cell-based; conditions: after one hour exposure at 37° C.; Examples 1-4
Method: Samples were evaluated in an in vitro tissue model. […] Inserts were feed for each day of recovery.
TER measurements were accomplished using the Endohm-12 Tissue Resistance Measurement Chamber connected to the EVOM Epithelial Voltohmmeter (World Precision Instruments, Sarasota, Fla.) with the electrode leads. The electrodes and a tissue culture blank insert were equilibrated for at least 20 minutes in MatTek medium with the power off prior to check calibration. The background resistance was measured with 1.5 ml Media in the Endohm tissue chamber and 300 μl Media in the blank insert. The top electrode was adjusted so that it was close to, but not making contact with, the top surface of the insert membrane. Background resistance of the blank insert was about 5-20 ohms. For each TER determination, 300 μl of MatTek medium was added to the insert followed by placement in the Endom chamber. Resistance was expressed as (resistance measured−blank)×0.6 cm^2.

aminopeptidases = conditions: cited from earlier work

Row | Molecule | change in TER [1] | more effective in enzyme inhibition than bestatin (aminopeptidases; relative to bestatin) | more effective in enzyme inhibition than puromycin (aminopeptidases; relative to puromycin)
1 | Triton X | essentially a complete reduction in TER |  | 
2 | CC(C)CC(N)B(O)O (stereo not drawn) [boro-leucine] |  | more than 100 times | more than 1000 times
